According to patent US6669939B1, “(Poly)peptides which represent the epitopes of the human herpes virus type 8” (Biotrin International Properties Limited, priority 1998, dated 2003):

Test system: anti-EBV antibodies
Experiment: ELISA with EBV control peptide, comparing antibody titers against HHV-8 and EBV
Type: binding, human
Protocol: Various control panels as well as control peptides were used to test the specificity of the HHV-8 antibody ELISA. Using an EBV control peptide (cf. table 2), analyses were carried out to compare antibody titers against HHV-8 and EBV (a closely related herpesvirus). In 56 out of 64 cases the observed antibody titers were at least 30% divergent; the EBV seroprevalence was 86% with HIV-positive patients and 72% with the controls.

In the case of “S G S G Q E P P A P Q A P I (SGSGQEPPAPQAPI; Epstein-Barr virus) [EBV control peptide, control peptide, Epstein-Barr virus strain B95-8, EBNA 6, position 100695-100724, with SGSG spacer]”, the EBV seroprevalence (HIV-positive patients) is reported as 86% and the EBV seroprevalence (controls) is reported as 72%.
